# Measured values: patent US20050070509A1, “Antimycotic agent” (priority 2001, published 2005)
# Experiments:
# Format in all cases: cell-based
# [1] = tested on: Candida albicans; assay: agar incorporation test, growth inhibition of yeasts; details: Sabouraud agar, 30° C., patient isolates
# Procedure: (§1) The activity of the compound according to the invention as agent for inhibiting the growth of various types of yeasts was studied in an agar incorporation test. The nutrient medium used was Sabouraud agar. Several samples of each of the yeast types below, which were isolated directly from diseased patients, were tested: • a) Candida tropicalis • b) Candida albicans • c) Candida glabrata • d) Candida parapsilosis.
# (§2) The cultures were supplemented with bis(N-cyclohexyldiazeniumdioxy)copper in such an amount that an end concentration of 25 or 50 ppm was obtained. The cultures were subsequently incubated at 30° C., and the growth of the isolates was assessed after an incubation period of 2 to 5 days.
# [2] = tested on: Candida glabrata; assay: as above; details: Sabouraud agar, 30° C., patient isolates
# Procedure: as §1, §2
# [3] = tested on: Candida parapsilosis; assay: as above; details: Sabouraud agar, 30° C., patient isolates
# Procedure: as §1, §2
# [4] = tested on: Candida tropicalis; assay: as above; details: Sabouraud agar, 30° C., patient isolates
# Procedure: as §1, §2
# [5] = tested on: Epidermophyton floccosum; assay: agar incorporation test, growth inhibition of dermatophytes
# Procedure: as §1, §2
# (§3) The activity of the compound according to the invention for inhibiting the growth of the dermatophyte cultures below was studied in an agar incorporation test as described in Example 1. The active ingredient concentration in the samples amounted to 2.5, 5, 10, 15, 20, 25, 30, 35, 40, 45 and 50 ppm. The isolates were studied after an incubation period of 7, 14 and 21 days, and their growth was determined.
# [6] = tested on: Microsporum canis; assay: as above
# Procedure: as §1, §2, §3
# [7] = tested on: Scopulariopsis brevicaulis; assay: as above
# Procedure: as §1, §2, §3
# [8] = tested on: Trichlorophyton rubrum; assay: as above
# Procedure: as §1, §2, §3
# [9] = tested on: Trichophyton mentagrophytes; assay: as above
# Procedure: as §1, §2, §3
# [10] = active ingredient 25 ppm, incubation 2 and 5 days
# [11] = active ingredient 50 ppm, incubation 2 to 5 days
compound,measurement,setting,value
O=NN([O-])C1CCCCC1.O=NN([O-])C1CCCCC1.[Cu+2] [bis(N-cyclohexyldiazeniumdioxy)copper],growth of the isolates,[1]; [10],still growing
same,growth of the isolates,[1]; [11],no growth
same,growth of the isolates,[2]; [10],still growing
same,growth of the isolates,[2]; [11],no growth
same,growth of the isolates,[3]; [10],still growing
same,growth of the isolates,[3]; [11],no growth
same,growth of the isolates,[4]; [10],still growing
same,growth of the isolates,[4]; [11],no growth
same,Effective active ingredient concentration,[5]; incubation period 7 days,15 ppm
same,Effective active ingredient concentration,[5]; incubation period 14 days,20 ppm
same,Effective active ingredient concentration,[5]; incubation period 21 days,20 ppm
same,Effective active ingredient concentration,[6]; incubation period 7 days,≦10 ppm
same,Effective active ingredient concentration,[6]; incubation period 14 days,15 ppm
same,Effective active ingredient concentration,[6]; incubation period 21 days,15 ppm
same,Effective active ingredient concentration,[7]; incubation period 7 days,25 ppm
same,Effective active ingredient concentration,[7]; incubation period 14 days,35 ppm
same,Effective active ingredient concentration,[7]; incubation period 21 days,40 ppm
same,Effective active ingredient concentration,[8]; incubation period 7 days,15 ppm
same,Effective active ingredient concentration,[8]; incubation period 14 days,15 ppm
same,Effective active ingredient concentration,[8]; incubation period 21 days,15 ppm
same,Effective active ingredient concentration,[9]; incubation period 7 days,30 ppm
same,Effective active ingredient concentration,[9]; incubation period 14 days,30 ppm
same,Effective active ingredient concentration,[9]; incubation period 21 days,30 ppm
